ChEMBL document CHEMBL1147900, “Immuno-stimulating properties of diosgenyl saponins isolated from Paris polyphylla” (Bioorg Med Chem Lett, 2007)
Activity calls are given as the source filed them. No cut-off for these calls is given here.

Tests used:
Type in all cases: functional, cell-based
[1] = tested on: RAW; test: Effect on NO production in mouse RAW 264.7 cells at 100 nM
[2] = tested on: RAW; test: Induction of respiratory burst in mouse RAW 264.7 cells at 10 nM assessed as superoxide anion production after 2 hrs by NBT test
[3] = tested on: RAW; test: Effect on phagocytic activity in mouse RAW 264.7 cells after 24 hrs
[4] = tested on: RAW; test: Effect on phagocytic activity in mouse RAW 264.7 cells at 10 uM after 24 hrs

Row | Structure (SMILES) | Activity [1] | Activity [2] | Activity [3] | Activity [4]
1 | C[C@@H]1CC[C@@]2(OC1)O[C@H]1C[C@H]3[C@@H]4CC=C5C[C@@H](O)CC[C@]5(C)[C@H]4CC[C@]3(C)[C@H]1[C@@H]2C | inactive | inactive | Active | –
2 | C[C@H]1CC[C@@]2(OC1)O[C@H]1C[C@H]3[C@@H]4CC=C5C[C@@H](O[C@@H]6O[C@@H](CO)[C@H](O[C@H]7O[C@H](C)[C@@H](O[C@H]8O[C@H](C)[C@@H](O)[C@H](O)[C@@H]8O)[C@H](O)[C@@H]7O)[C@@H](O)[C@@H]6O[C@@H]6O[C@@H](C)[C@@H](O)[C@H](O)[C@@H]6O)CC[C@]5(C)[C@H]4CC[C@]3(C)[C@H]1[C@@H]2C | Active | Active | Active | Active
